Data published in PubChem BioAssay (NCI).
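Cultured in 96-well plates, cells were exposed to test compound for 48 hours across five concentrations. TGI is the concentration that stops growth completely.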 *1 amine or outer side, *2 acyl side, *3 side chain or, on linkers, in order; H or OH if unused. Where a SMILES comes first, the peptide text is derived from it. Bridges are numbered along the chain shown (N, C = ends). Roman numbers before positions name the chains, in order. [ ]: non-standard residue; d: D form. ξ: configuration not given here. X54 = N=C(N)NCCC[C@@H](NC(=N)CCCCCCC(=N)N[C@H](CCCNC(=N)N)C(=O)[*:2])C(=O)[*:1]; dIgl = N[C@@H](C(=O)O)C1Cc2ccccc2C1; Hyp = O=C(O)[C@@H]1C[C@@H](O)CN1; ξIgl = NC(C(=O)O)C1Cc2ccccc2C1; ξOic = O=C(O)C1CC2CCCCC2N1; ξR = N=C(N)NCCCC(N)C(=O)O; ξP = O=C(O)C1CCCN1; ξS = NC(CO)C(=O)O

What was measured:
Experiment in all cases: NCI-60 cell line screen, 48 h
[1] = tested on: SF-295 CNS
[2] = tested on: MDA-N
[3] = tested on: COLO 205 colon
[4] = tested on: EKVX NSCLC
[5] = tested on: HT29 colon
[6] = tested on: CAKI-1 renal
[7] = tested on: CCRF-CEM leukemia
[8] = tested on: MDA-MB-435
[9] = tested on: NCI-H460 lung
[10] = tested on: U251 CNS
[11] = tested on: SK-MEL-28 melanoma
[12] = tested on: TK-10 renal
[13] = tested on: T-47D breast
[14] = tested on: OVCAR-3 ovarian
[15] = tested on: DU-145 prostate
[16] = tested on: SW-620 colon
[17] = tested on: UO-31 renal
[18] = tested on: SF-268 CNS
[19] = tested on: PC-3 prostate
[20] = tested on: MDA-MB-231 breast
[21] = tested on: A498 renal
[22] = tested on: UACC-257 melanoma
[23] = tested on: SK-MEL-5 melanoma
[24] = tested on: UACC-62 melanoma
[25] = tested on: SK-OV-3 ovarian
[26] = tested on: OVCAR-5 ovarian
[27] = tested on: M14 melanoma
[28] = tested on: LOX IMVI melanoma
[29] = tested on: MCF7 breast
[30] = tested on: MALME-3M melanoma
[31] = tested on: K-562 leukemia
[32] = tested on: SNB-19 CNS
[33] = tested on: HCT-116 colon
[34] = tested on: HCT-15 colon
[35] = tested on: NCI/ADR-RES ovarian
[36] = tested on: NCI-H522 lung
[37] = tested on: HOP-62 NSCLC
[38] = tested on: ACHN renal
[39] = tested on: IGROV1 ovarian
[40] = tested on: A549 NSCLC
[41] = tested on: NCI-H23 lung
[42] = tested on: SF-539 CNS
[43] = tested on: SK-MEL-2 melanoma
[44] = tested on: HL-60(TB) leukemia
[45] = tested on: NCI-H226 lung
[46] = tested on: SR leukemia
[47] = tested on: HS 578T breast
[48] = tested on: 786-0 renal
[49] = tested on: MOLT-4 leukemia
[50] = tested on: KM12 colon
[51] = tested on: OVCAR-8 ovarian
[52] = tested on: SN12C renal
[53] = tested on: SNB-75 CNS
[54] = tested on: HCC-2998 colon
[55] = tested on: OVCAR-4 ovarian
[56] = tested on: RPMI-8226 leukemia
[57] = tested on: RXF 393 renal
[58] = tested on: HOP-92 NSCLC

Measured: TGI

COc1ccc(-c2oc3ccccc3c(=O)c2O)cc1OC
35.1 µM: [1]
> 100 µM: [2] | [3] | [4] | [5] | [6] | [7] | [8] | [9] | [11] | [13] | [14] | [15] | [16] | [17] | [19] | [20] | [22] | [23] | [24] | [25] | [26] | [27] | [28] | [29] | [30] | [31] | [32] | [33] | [34] | [35] | [36] | [38] | [39] | [40]
23.4 µM: [10]
71.5 µM: [21]
47.4 µM: [37]
76.8 µM: [12]
53 µM: [18]

COc1ccc(-c2coc3cc(O)ccc3c2=O)cc1
> 100 µM: [1] | [2] | [3] | [5] | [6] | [7] | [8] | [41] | [9] | [10] | [11] | [42] | [43] | [12] | [13] | [14] | [15] | [16] | [17] | [18] | [19] | [44] | [45] | [20] | [21] | [22] | [23] | [24] | [25] | [46] | [47] | [26] | [27] | [48] | [29] | [49] | [50] | [30] | [31] | [51] | [52] | [32] | [33] | [34] | [35] | [36] | [37] | [38] | [53] | [39] | [54] | [40]

N=C(N)NCCCC(NC(=O)C1CC2CCCCC2N1C(=O)[C@H](NC(=O)C(CO)NC(=O)C(NC(=O)CNC(=O)[C@@H]1C[C@@H](O)CN1C(=O)C1CCCN1C(=O)C(CCCNC(=N)N)NC(=O)[C@@H](CCCNC(=N)N)NC(=N)CCCCCCC(=N)N[C@H](CCCNC(=N)N)C(=O)NC(CCCNC(=N)N)C(=O)N1CCCC1C(=O)N1C[C@H](O)C[C@H]1C(=O)NCC(=O)NC(C(=O)NC(CO)C(=O)N[C@@H](C(=O)N1C(C(=O)NC(CCCNC(=N)N)C(=O)O)CC2CCCCC21)C1Cc2ccccc2C1)C1Cc2ccccc2C1)C1Cc2ccccc2C1)C1Cc2ccccc2C1)C(=O)O (some centres undefined) (I: [ξR][ξP][Hyp]G[ξIgl][ξS][dIgl][ξOic][ξR]-OH / II: [ξR][ξP][Hyp]G[ξIgl][ξS][dIgl][ξOic][ξR]-OH; linker I:N-II:N via X54)
4.04 µM: [29]
5.64 µM: [37]
5.1 µM: [30]
6.82 µM: [47]
8.81 µM: [7]
4.71 µM: [58]
4.13 µM: [50]
4.48 µM: [56]
3.87 µM: [9]
4.64 µM: [34]
6.77 µM: [43]
7.23 µM: [27]
3.02 µM: [57]
3.64 µM: [11]
4.42 µM: [13]
3.71 µM: [6]
5.35 µM: [10]
4.3 µM: [1]
8.95 µM: [12]
3.4 µM: [14]
3.62 µM: [23]
2.89 µM: [49]
2.95 µM: [46]
5.49 µM: [32]
4.17 µM: [41]
4.03 µM: [31]
3.06 µM: [15]
3.59 µM: [19]
3.28 µM: [3]
5.23 µM: [2]
> 10 µM: [17] | [22] | [26] | [33] | [35] | [36] | [39] | [40]
4.56 µM: [55]
4.18 µM: [8]
0.409 µM: [44]
6.35 µM: [16]
3.72 µM: [24]
3.49 µM: [20]
5.07 µM: [48]
3.91 µM: [38]
4.94 µM: [28]
5.32 µM: [42]
3.82 µM: [18]
3.67 µM: [4]
2.12 µM: [5]
3.74 µM: [25]
4.16 µM: [52]

CSc1cc(Cl)c(C)cc1S(=O)(=O)NC(=O)NNc1ccc(F)cc1
> 100 µM: [1] | [2] | [3] | [4] | [5] | [6] | [8] | [9] | [10] | [11] | [42] | [43] | [13] | [14] | [15] | [16] | [18] | [19] | [45] | [20] | [21] | [23] | [25] | [46] | [47] | [26] | [27] | [28] | [48] | [29] | [49] | [55] | [50] | [30] | [31] | [51] | [52] | [32] | [33] | [34] | [57] | [35] | [36] | [37] | [38] | [53] | [39] | [54] | [40]
